# pIC50: −log10 of the molar value.
# Molecular target: T1, human chemokine receptor 2 isoform B (Homo sapiens, UniProt P41597)
# T1 construct: host or cells: CHOK1-CCR2B-A5 (CHO-K1) cells
# T1 sequence (P41597 1-360 isoform P41597-2): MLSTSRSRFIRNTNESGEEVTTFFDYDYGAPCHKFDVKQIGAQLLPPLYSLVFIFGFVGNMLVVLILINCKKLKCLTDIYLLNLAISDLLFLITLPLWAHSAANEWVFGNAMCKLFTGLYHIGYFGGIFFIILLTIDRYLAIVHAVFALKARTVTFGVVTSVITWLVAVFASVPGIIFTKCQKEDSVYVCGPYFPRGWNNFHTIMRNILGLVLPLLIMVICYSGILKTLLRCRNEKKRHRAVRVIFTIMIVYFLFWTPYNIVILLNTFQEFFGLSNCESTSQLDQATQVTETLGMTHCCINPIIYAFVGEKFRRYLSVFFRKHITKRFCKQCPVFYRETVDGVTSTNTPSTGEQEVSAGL
# Assay: Calcium mobilization assay
# Assay type: cell-based
# Details: Ca mobilization assay for CCR2; CHOK1-CCR2B-A5 cells; antagonist activity against 20 nM MCP-1; FLIPR, Fluo-4
compound,measurement,value
"CC1C(=O)N(CC[C@H](O)CN2CCC3(CC3)[C@H](O)C2)CCN1c1ccc(Cl)c(Cl)c1 (stereo partly drawn) [Example 107, 4-(3,4-Dichloro-phenyl)-1-[(S)-3-hydroxy-4-((S)-4-hydroxy-6-aza-spiro[2.5]oct-6-yl)-butyl]-3-methyl-piperazin-2-one]",pIC50,7.82

# From patent publication US8138175B2, “Heterocyclyl compounds” (Hoffmann-La Roche Inc., priority 2008, dated 2012)
